One assay has as its target CSNK2A1 (CK2 alpha 1) (Homo sapiens (Human), UniProt P68400). Nature of the assay: CK2 alpha 1 enzymatic activity inhibition (Z'-LYTE). The assay is classed as biochemical. As to conditions: read-out: CK2a IC50. How it is done:
CK2 Alpha 1 Enzymatic Activity Inhibition: Determination of IC50 Values for Selected Compounds
The half maximal inhibitory concentration (IC50) with respect to CK2 alpha 1 inhibition was determined for the compounds of the invention by using Z′-LYTE™ from ThermoFisher Scientific's SelectScreen™ Biochemical Kinase Profiling Service (Waltham, MA). Compounds were screened in 1% DMSO (final) in the well. For 10 point titrations, 3-fold serial dilutions were conducted from the starting concentration. The 2×CSNK2A1 (CK2 alpha 1)/Ser/Thr 11 mixture is prepared in 50 mM HEPES pH 7.5, 0.01% BRIJ-35, 10 mM MgCl2, 1 mM EGTA. The black 384-well plate (Corning Cat. #4514) were used for the assay. 100 nL of 100× test compound in 100% DMSO, 2.4 uL of kinase buffer (50 mM HEPES pH 7.5, 0.01% BRIJ-35, 10 mM MgCl2, 1 mM EGTA), 5 uL of 2×CSNK2A1 (CK2 alpha 1)/Ser/Thr 11 mixture, and 2.5 uL of 4×ATP solution were mixed and agitated for 30 seconds. Then the Kinase Reaction was incubated at room temperature for 60 minutes. The final 10 uL Kinase Reaction consisted of 0.68-25.7 ng CSNK2A1 (CK2 alpha 1) and 2 μM Ser/Thr 11 in 50 mM HEPES pH 7.5, 0.01% BRIJ-35, 10 mM MgCl2, 1 mM EGTA. After the 1 hour Kinase Reaction incubation, 5 uL of a 1:16 dilution of Development Reagent B is added. After 30 second of plate shake, the reaction plate was incubated for another 60 min at room temperature. Then the plate was read on a fluorescence plate reader (CLARIOstar, BMG Labtech, Germany) and data was analyzed using XLfit from IDBS. The dose response curve was curve fit to model number 205 (sigmoidal dose-response model).

For the next assay, the target named is HIPK2 (Homo sapiens (Human), UniProt Q9H2X6). Nature of the assay: HIPK2 enzymatic activity inhibition (Z'-LYTE). It counts as biochemical. Here is the method:
HIPK2 Enzymatic Activity Inhibition: Determination of IC50 Values for Selected Compounds
The half maximal inhibitory concentration (IC50) with respect to HIPK2 inhibition was determined for the compounds of the invention by using Z′-LYTE™ from ThermoFisher Scientific's SelectScreen™ Biochemical Kinase Profiling Service (Waltham, MA). Compounds were screened in 1% DMSO (final) in the well. For 10 point titrations, 3-fold serial dilutions were conducted from the starting concentration. The 2×HIPK2/Ser/Thr 09 mixture was prepared in 50 mM HEPES pH 7.5, 0.01% BRIJ-35, 10 mM MgCl2, 1 mM EGTA.
100 nL of 100× test compound in 100% DMSO, 2.4 uL of kinase buffer (50 mM HEPES pH 7.5, 0.01% BRIJ-35, 10 mM MgCl2, 1 mM EGTA), 5 uL of 2×HIPK2/Ser/Thr 09 mixture, and 2.5 uL of 4×ATP solution were mixed and agitated for 30 seconds. Then the Kinase Reaction was incubated at room temperature for 60 minutes. […] After 30 second of plate shake, the reaction plate was incubated for another 60 min at room temperature. Then the plate was read on a fluorescence plate reader (CLARIOstar, BMG Labtech, Germany) as plate reader and data was analyzed using XLfit from IDBS.

Where two headings read alike, the source gives them in different places. Some results are limits rather than exact numbers.

Sequence of CSNK2A1 (CK2 alpha 1) (P68400 whole entry): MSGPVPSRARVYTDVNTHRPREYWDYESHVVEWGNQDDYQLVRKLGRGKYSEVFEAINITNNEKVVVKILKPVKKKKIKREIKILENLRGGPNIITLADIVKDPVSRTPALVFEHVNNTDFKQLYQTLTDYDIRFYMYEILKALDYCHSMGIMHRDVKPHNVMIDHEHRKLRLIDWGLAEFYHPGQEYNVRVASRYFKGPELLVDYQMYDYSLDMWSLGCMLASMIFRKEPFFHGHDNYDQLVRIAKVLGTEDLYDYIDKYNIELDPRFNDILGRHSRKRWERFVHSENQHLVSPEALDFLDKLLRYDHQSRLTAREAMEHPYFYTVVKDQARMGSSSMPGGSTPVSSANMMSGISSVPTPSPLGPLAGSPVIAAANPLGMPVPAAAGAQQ
Sequence of HIPK2 (Q9H2X6 whole entry): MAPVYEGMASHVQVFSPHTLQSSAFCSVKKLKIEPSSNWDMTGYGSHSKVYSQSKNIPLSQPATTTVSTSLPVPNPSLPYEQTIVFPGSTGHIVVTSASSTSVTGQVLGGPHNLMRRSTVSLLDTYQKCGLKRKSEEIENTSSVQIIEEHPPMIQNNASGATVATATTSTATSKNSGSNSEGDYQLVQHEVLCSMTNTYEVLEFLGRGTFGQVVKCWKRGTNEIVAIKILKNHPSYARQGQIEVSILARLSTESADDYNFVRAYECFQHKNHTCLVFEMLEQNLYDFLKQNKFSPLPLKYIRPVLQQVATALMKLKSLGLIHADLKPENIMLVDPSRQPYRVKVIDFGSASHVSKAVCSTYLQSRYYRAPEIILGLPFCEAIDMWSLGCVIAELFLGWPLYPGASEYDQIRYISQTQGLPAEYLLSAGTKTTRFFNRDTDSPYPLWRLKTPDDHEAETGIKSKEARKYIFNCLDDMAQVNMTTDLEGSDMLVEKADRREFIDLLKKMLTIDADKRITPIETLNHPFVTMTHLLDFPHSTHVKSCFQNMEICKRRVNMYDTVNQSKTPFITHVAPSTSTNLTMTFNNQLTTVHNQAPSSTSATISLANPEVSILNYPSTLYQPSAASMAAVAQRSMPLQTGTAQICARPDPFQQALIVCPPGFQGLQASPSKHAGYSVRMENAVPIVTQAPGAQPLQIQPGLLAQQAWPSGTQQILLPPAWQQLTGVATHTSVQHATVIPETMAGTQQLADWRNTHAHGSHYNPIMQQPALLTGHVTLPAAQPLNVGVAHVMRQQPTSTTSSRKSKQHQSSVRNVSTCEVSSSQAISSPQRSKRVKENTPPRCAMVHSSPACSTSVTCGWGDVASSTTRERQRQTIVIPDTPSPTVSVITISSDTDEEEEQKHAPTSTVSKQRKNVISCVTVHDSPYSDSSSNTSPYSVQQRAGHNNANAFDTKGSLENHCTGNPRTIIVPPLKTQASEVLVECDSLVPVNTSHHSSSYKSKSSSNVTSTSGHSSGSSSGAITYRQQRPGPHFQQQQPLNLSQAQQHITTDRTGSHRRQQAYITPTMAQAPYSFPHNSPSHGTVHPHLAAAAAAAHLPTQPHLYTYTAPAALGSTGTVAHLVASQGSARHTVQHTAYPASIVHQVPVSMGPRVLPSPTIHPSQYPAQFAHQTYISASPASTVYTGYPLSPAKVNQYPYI

Turning to `Nc1ccc(-c2cc3cc(C(=O)O)ccc3c3cnccc23)cn1` [Compound 10, Sodium 5-(6-aminopyridin-3-yl)benzo[h]isoquinoline-8-carboxylate], the IC50 (commonly the midpoint of a concentration-inhibition curve) on CSNK2A1 (CK2 alpha 1) was < 300 nM; at HIPK2, 300 to 1000 nM. Take `O=C(O)c1ccc2c(c1)cc(Br)c1ccncc12` [Compound 1, Sodium 5-bromobenzo[h]isoquinoline-8-carboxylate]: the IC50 on CSNK2A1 (CK2 alpha 1) and on HIPK2 (read-out: HIPK2 IC50) was < 300 nM throughout.

For the compound `O=C(O)c1ccc2c(c1)cc(NC1CC1)c1ccncc12` [Compound 17, Sodium 5-(cyclopropylamino)benzo[h]isoquinoline-8-carboxylate], the IC50 on CSNK2A1 (CK2 alpha 1) and on HIPK2 (read-out: HIPK2 IC50) was < 300 nM each time. `CC(C)Nc1cc2cc(C(=O)O)ccc2c2cnccc12` [Compound 21, Sodium 5-(isopropylamino)benzo[h]isoquinoline-8-carboxylate]: the IC50 on CSNK2A1 (CK2 alpha 1) is < 300 nM; on HIPK2, 300 to 1000 nM. For `CC(C)CNc1cc2cc(C(=O)O)ccc2c2cnccc12` [Compound 16], the IC50 at CSNK2A1 (CK2 alpha 1) was < 300 nM.

Turning to `O=C(O)c1ccc2c(c1)cc(Nc1cccc(Cl)c1)c1ccncc12` [Compound 4, Sodium 5-((3-chlorophenyl)amino)benzo[h]isoquinoline-8-carboxylate], the IC50 on CSNK2A1 (CK2 alpha 1) is < 300 nM; on HIPK2, 300 to 1000 nM. For `O=C(O)c1ccc2c(c1)cc(NC1CCC1)c1ccncc12` [Compound 18, Sodium 5-(cyclobutylamino)benzo[h]isoquinoline-8-carboxylate], in that order: < 300 nM and 300 to 1000 nM. Regarding `Cc1cc2cc(C(=O)O)ccc2c2cnccc12` [Compound 9, Sodium 5-methylbenzo[h]isoquinoline-8-carboxylate], the IC50 at CSNK2A1 (CK2 alpha 1) is < 300 nM; at HIPK2, 300 to 1000 nM. Take `O=C(O)c1ccc2c(c1)cc(N[C@@H]1CCCNC1)c1ccncc12` [Compound 13, (R)-5-(Piperidin-3-ylamino)benzo[h]isoquinoline-8-carboxylic acid]: the IC50 at CSNK2A1 (CK2 alpha 1) and against HIPK2 was 1000 to 5000 nM throughout. Turning to `O=C(O)c1ccc2c(c1)cc(-c1ccncc1)c1ccncc12` [Compound 8, Sodium 5-(pyridin-4-yl)benzo[h]isoquinoline-8-carboxylate], the IC50 at CSNK2A1 (CK2 alpha 1) was < 300 nM; at HIPK2, 1000 to 5000 nM. For `O=C(O)c1ccc2c(ccc3ccnc(Cl)c32)c1` [Compound 25, Sodium 1-chlorobenzo[h]isoquinoline-8-carboxylate] the same measures were < 300 nM and 1000 to 5000 nM. For `O=C(O)c1ccc2c(c1)cc(Br)c1cc(Cl)ncc12` [Compound 24, Sodium 5-bromo-3-chlorobenzo[h]isoquinoline-8-carboxylate], the IC50 on CSNK2A1 (CK2 alpha 1) is 1000 to 5000 nM; at HIPK2 (read-out: HIPK2 IC50), > 5000 nM. Take `COc1nccc2c(Br)cc3cc(C(=O)O)ccc3c12` [Compound 34, Sodium 5-bromo-1-methoxybenzo[h]isoquinoline-8-carboxylate]: the IC50 on CSNK2A1 (CK2 alpha 1) was in the range of 300 to 1000 nM; at HIPK2 it was 1000 to 5000 nM. For `O=C(O)c1ccc2c(c1)cc(NC1CCCCC1)c1ccncc12` [Compound 12, Sodium 5-(cyclohexylamino)benzo[h]isoquinoline-8-carboxylate] the same measures were < 300 nM and 300 to 1000 nM. For `CC[C@H](C)Nc1cc2cc(C(=O)O)ccc2c2cnccc12` [Compound 19, (S)-5-(sec-Butylamino)benzo[h]isoquinoline-8-carboxylic acid], the results for the IC50 on CSNK2A1 (CK2 alpha 1) and against HIPK2 were < 300 nM and 1000 to 5000 nM, respectively. As to `Nc1nccc2cc(Br)c3cc(C(=O)O)ccc3c12` [Compound 35, Sodium 1-amino-6-bromobenzo[h]isoquinoline-8-carboxylate], the IC50 is 300 to 1000 nM at CSNK2A1 (CK2 alpha 1) and < 300 nM at HIPK2 (read-out: HIPK2 IC50). For the compound `O=C(O)c1ccc2c(c1)cc(NC1CCCC1)c1ccncc12` [Compound 15, Sodium 5-(cyclopentylamino)benzo[h]isoquinoline-8-carboxylate], the IC50 was < 300 nM on CSNK2A1 (CK2 alpha 1) and 300 to 1000 nM against HIPK2. For `O=C(O)c1ccc2c(c1)cc(Nc1ccc(Cl)cc1)c1ccncc12` [Compound 5, Sodium 5-((4-chlorophenyl)amino)benzo[h]isoquinoline-8-carboxylate] the same measures were < 300 nM and 300 to 1000 nM. Take `N[C@@H]1CCCN(c2cc3cc(C(=O)O)ccc3c3cnccc23)C1` [Compound 14, (R)-5-(3-Aminopiperidin-1-yl)benzo[h]isoquinoline-8-carboxylic acid]: the IC50 at CSNK2A1 (CK2 alpha 1) was < 300 nM; at HIPK2 (read-out: HIPK2 IC50), > 5000 nM. For `O=C(O)c1ccc2c(c1)cc([N+](=O)[O-])c1ccncc12` [Compound 26, Sodium 5-nitrobenzo[h]isoquinoline-8-carboxylate], the figures for the IC50 on CSNK2A1 (CK2 alpha 1) and against HIPK2 were < 300 nM and 300 to 1000 nM, respectively. Regarding `O=C(O)c1ccc2c(c1)cc(-c1ccc(Cl)cc1)c1ccncc12` [Compound 6, Sodium 5-(4-chlorophenyl)benzo[h]isoquinoline-8-carboxylate], the IC50 on CSNK2A1 (CK2 alpha 1) lay within 300 to 1000 nM; at HIPK2 it was 1000 to 5000 nM. `CC[C@@H](C)Nc1cc2cc(C(=O)O)ccc2c2cnccc12` [Compound 22, Sodium (R)-5-(sec-butylamino)benzo[h]isoquinoline-8-carboxylate]: the IC50 on CSNK2A1 (CK2 alpha 1) and at HIPK2 (read-out: HIPK2 IC50) was < 300 nM in each case. With `CN(C)c1nccc2c(Br)cc3cc(C(=O)O)ccc3c12` [Compound 30, Sodium 5-bromo-1-(dimethylamino)benzo[h]isoquinoline-8-carboxylate], the half-maximal inhibitory concentration (IC50) on CSNK2A1 (CK2 alpha 1) and on HIPK2 was 1000 to 5000 nM in each case. As to `N#Cc1cc2cc(C(=O)O)ccc2c2cnccc12` [Compound 27, Sodium 5-cyanobenzo[h]isoquinoline-8-carboxylate], the IC50 is < 300 nM on CSNK2A1 (CK2 alpha 1) and 300 to 1000 nM at HIPK2. For `O=C(O)c1ccc2c(c1)cc(Br)c1ccnc(Cl)c12` [Compound 23, Sodium 5-bromo-1-chlorobenzo[h]isoquinoline-8-carboxylate] the same measures were < 300 nM and 300 to 1000 nM. For `O=C(O)c1ccc2c(c1)cc(-c1cccnc1)c1ccncc12` [Compound 7, Sodium 5-(pyridin-3-yl)benzo[h]isoquinoline-8-carboxylate], in that order: < 300 nM and 1000 to 5000 nM. For `CNc1nccc2c(Br)cc3cc(C(=O)O)ccc3c12` [Compound 32, Sodium 5-bromo-1-(methylamino)benzo[h]isoquinoline-8-carboxylate], in that order: 300 to 1000 nM and 1000 to 5000 nM. Regarding `O=C(O)c1ccc2c(c1)cc(N1CCCCC1)c1ccncc12` [Compound 20, Sodium 5-(piperidin-1-yl)benzo[h]isoquinoline-8-carboxylate], the IC50 at CSNK2A1 (CK2 alpha 1) is < 300 nM; against HIPK2 it was 300 to 1000 nM. For `NC(=O)c1ccc2c(c1)cc(Br)c1ccnc(N)c12` [Compound 33, 1-Amino-5-bromobenzo[h]isoquinoline-8-carboxamide] the same measures were 1000 to 5000 nM and 300 to 1000 nM. Take `O=C(O)c1ccc2c(c1)cc(Br)c1ccnc(NC3CC3)c12` [Compound 31, Sodium 5-bromo-1-(cyclopropylamino)benzo[h]isoquinoline-8-carboxylate]: the 50% inhibitory concentration (IC50) on CSNK2A1 (CK2 alpha 1) and against HIPK2 was 1000 to 5000 nM each time. `O=C(O)c1ccc2c(c1)cc(C1CC1)c1ccncc12` [Compound 28, Sodium 5-cyclopropylbenzo[h]isoquinoline-8-carboxylate]: the figures for the IC50 on CSNK2A1 (CK2 alpha 1) and at HIPK2 were < 300 nM and 300 to 1000 nM, respectively.

The record behind these values is patent publication US11932606B2, “Anti-cancer/anti-fibrosis compounds” (THE REGENTS OF THE UNIVERSITY OF CALIFORNIA, priority 2017, dated 2024).
